Tests used:
Format in all cases: binding
[1] = target: T1, KOR (kappa-opioid receptor) (Cavia porcellus, UniProt P41144); conditions: 50 mM Tris-HCl pH 7.4, 25 °C, 30 min; read-out: KOR^b / Ki ± S.E.M.
T1 construct: gene OPRK1; native full-length receptor in guinea pig brain membrane homogenate
Description: [3H]HS665 displacement, guinea pig brain membranes on KOR (kappa-opioid receptor)

[2] = target: T2, MOR (mu-opioid receptor) (Rattus norvegicus, UniProt P33535); conditions: 50 mM Tris-HCl pH 7.4, 35 °C, 45 min; read-out: MOR^a / Ki ± S.E.M.
T2 construct: gene Oprm1; native full-length receptor in rat brain membrane homogenate
T2 sequence (P33535 whole entry): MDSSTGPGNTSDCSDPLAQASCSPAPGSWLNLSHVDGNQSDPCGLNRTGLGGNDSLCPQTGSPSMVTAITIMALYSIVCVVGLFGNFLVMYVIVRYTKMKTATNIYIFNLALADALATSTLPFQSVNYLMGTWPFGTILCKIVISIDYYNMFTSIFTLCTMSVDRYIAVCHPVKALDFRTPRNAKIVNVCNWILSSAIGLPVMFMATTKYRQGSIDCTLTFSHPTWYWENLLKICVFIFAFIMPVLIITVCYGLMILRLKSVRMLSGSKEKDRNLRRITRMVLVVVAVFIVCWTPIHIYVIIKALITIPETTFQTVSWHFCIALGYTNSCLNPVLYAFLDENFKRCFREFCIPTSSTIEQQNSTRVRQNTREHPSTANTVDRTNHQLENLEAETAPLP

[3] = target: T3, DOR (delta-opioid receptor) (Rattus norvegicus, UniProt P33533); conditions: 50 mM Tris-HCl pH 7.4, 35 °C, 45 min; read-out: DOR^a / Ki ± S.E.M.
T3 construct: gene Oprd1; native full-length receptor in rat brain membrane homogenate
T3 sequence (P33533 whole entry): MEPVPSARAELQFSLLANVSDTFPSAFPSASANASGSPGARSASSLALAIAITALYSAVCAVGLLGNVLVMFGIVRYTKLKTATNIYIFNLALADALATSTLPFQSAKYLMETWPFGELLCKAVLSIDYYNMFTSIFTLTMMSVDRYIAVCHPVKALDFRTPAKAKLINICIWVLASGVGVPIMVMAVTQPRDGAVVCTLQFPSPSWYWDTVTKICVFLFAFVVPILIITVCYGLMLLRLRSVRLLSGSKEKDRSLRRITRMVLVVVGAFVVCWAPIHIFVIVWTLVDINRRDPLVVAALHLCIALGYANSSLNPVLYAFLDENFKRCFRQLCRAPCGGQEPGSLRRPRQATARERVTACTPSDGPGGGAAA

T1 sequence (P41144 whole entry): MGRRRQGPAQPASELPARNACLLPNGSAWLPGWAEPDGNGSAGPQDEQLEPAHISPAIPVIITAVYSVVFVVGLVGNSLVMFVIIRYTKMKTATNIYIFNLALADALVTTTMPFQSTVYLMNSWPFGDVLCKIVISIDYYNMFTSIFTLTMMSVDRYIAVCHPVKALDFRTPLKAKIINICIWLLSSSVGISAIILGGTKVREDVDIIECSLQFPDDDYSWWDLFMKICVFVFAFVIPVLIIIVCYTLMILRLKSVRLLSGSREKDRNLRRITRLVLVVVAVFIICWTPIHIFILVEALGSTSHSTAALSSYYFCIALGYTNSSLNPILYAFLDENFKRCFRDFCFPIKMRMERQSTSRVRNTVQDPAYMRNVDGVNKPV

Compound	Ki [1] [nM]	Ki [2] [nM]	Ki [3] [nM]
Oc1ccc2c3c1O[C@H]1[C@@H](O)C=C[C@H]4[C@@H](C2)N(CCN2CCCC2)CC[C@@]341 [9c]	6.9 ± 4.6	62.3 ± 2.6	34.1 ± 7.1
O=C(CN1CC[C@]23c4c5ccc(O)c4O[C@H]2[C@@H](O)C=C[C@H]3[C@H]1C5)N1CCCCC1 [10b]		1500 ± 664	> 10000
O=C1CC[C@@]2(O)[C@H]3Cc4ccc(O)c5c4[C@@]2(CCN3CC(=O)N2CCOCC2)[C@H]1O5 [12a]		684 ± 32.7	125 ± 39.6
O=C(CN1CC[C@]23c4c5ccc(O)c4O[C@H]2[C@@H](O)C=C[C@H]3[C@H]1C5)N1CCCC1 [10c]	10.7 ± 7.7	521 ± 218	839 ± 99.9
O=C1CC[C@@]2(O)[C@H]3Cc4ccc(O)c5c4[C@@]2(CCN3CC(=O)N2CCCCC2)[C@H]1O5 [12b]		1490 ± 612	1140 ± 532
Oc1ccc2c3c1O[C@H]1[C@@H](O)C=C[C@H]4[C@@H](C2)N(CCN2CCOCC2)CC[C@@]341 [9a]	20.3 ± 4.2	389 ± 17	25.3 ± 1.5
Oc1ccc2c3c1O[C@H]1[C@@H](O)C=C[C@H]4[C@@H](C2)N(CCN2CCCCC2)CC[C@@]341 [9b]	138 ± 42.3	436 ± 18.8	44.9 ± 7.2
O=C(CN1CC[C@]23c4c5ccc(O)c4O[C@H]2[C@@H](O)C=C[C@H]3[C@H]1C5)N1CCOCC1 [10a]	3.6 ± 1.9	394 ± 186	

Reference: PMC10660610 (Scientific Reports, 2023)
